Common to all, as to type: in vivo, Wistar strain rats
Details in all cases: cabergoline oral 0.05 mg/kg b.w. over 14 days

In experiment [1] the test system is experimental model for diabetic retinopathy. Kind of experiment: Blood-retinal barrier permeability (dextran method) and retinal thickness (OCT) in streptozocin model for diabetic retinopathy. On the procedure: (§1) The Effects of Administration of Cabergoline on Permeability of Blood-Retinal Barrier and on Retinal Thickness in an Experimental Model for Diabetic Retinopathy The research was conducted on an experimental model of Wistar strain rats. In order to cause diabetes, the rats were injected intraperitoneally with streptozocin at a dose of 60 mg/kg b.w. After 30 days since administration of streptozocin blood glucose level was checked and only rats with the blood glucose levels of over 250 mg % were qualified for the experiment. In the course of the experiment, the following parameters were assessed: permeability of blood-retinal barrier using the dextran method (BRB) and the thickness of the retina using optical coherence tomography (OCT). In the experiment, 4 experimental groups were compared: healthy animals without cabergoline administration, healthy animals with cabergoline administration (14 days of use), animals with diabetes without cabergoline, animals with diabetes with cabergoline (14 days of use). Cabergoline was administered to the animals in oral form at a dose of 0.05 mg/kg b.w. over 14 days.

The test system of experiment [2] is experimental model for central retinal vein occlusion. Briefly: Blood-retinal barrier permeability (dextran method) and retinal thickness (OCT) in laser model for central retinal vein occlusion. As to the method:
as §1, with “and” for “and on”, “Central Retinal Vein Occlusion.” for “Diabetic Retinopathy”, “Central retinal vein occlusion was performed using” for “In order to cause diabetes, the rats were injected intraperitoneally with streptozocin at”, “532 nm laser.” for “dose of 60 mg/kg b.w. After 30 days since administration of streptozocin blood glucose level was checked and only rats with the blood glucose levels of over 250 mg % were qualified for the experiment.”, “central retinal vein occlusion” for “diabetes”

In experiment [3] the test system is experimental model for choroidal neovascularization (CNV). Briefly: Blood-retinal barrier permeability (dextran method) and retinal thickness (OCT) in laser model for choroidal neovascularization (CNV). As to the method:
as §1, with “and” for “and on”, “Choroidal Neovascularization (CNV).” for “Diabetic Retinopathy”, “Choroidal neovascularization (CNV) was performed by photocoagulation of” for “In order to cause diabetes,”, “retina using” for “rats were injected intraperitoneally with streptozocin at”, “532 nm laser.” for “dose of 60 mg/kg b.w. After 30 days since administration of streptozocin blood glucose level was checked and only rats with the blood glucose levels of over 250 mg % were qualified for the experiment.”, “CNV” for “diabetes”

Where [4] appears, read: rats with streptozocin diabetes.
[5] abbreviates: rats with central retinal vein occlusion.

Regarding `C=CCN1C[C@H](C(=O)N(CCCN(C)C)C(=O)NCC)C[C@@H]2c3cccc4[nH]cc(c34)C[C@H]21` [cabergoline, Cabergoline], the “BRB (permeability of blood-retinal barrier, dextran method)” value in experiment [1] (healthy rats) is 22.4 ± 7.5 µL/g/min; in experiment [1] (setting [4]), 35.8 ± 10.6 µL/g/min; in experiment [2] (healthy rats) it was 25.1 ± 4.2 µL/g/min; in experiment [2] (setting [5]) it was 33.3 ± 12.9 µL/g/min; in experiment [3] (healthy rats), 28.5 ± 6.6 µL/g/min; in experiment [3] (rats with CNV), 37.4 ± 15.2 µL/g/min. Moreover, the “OCT (thickness of the retina)” value in experiment [1] (healthy rats) was 281 ± 14 μm; in experiment [1] (setting [4]), 320 ± 35 μm; in experiment [2] (healthy rats), 258 ± 13 μm; in experiment [2] (setting [5]), 343 ± 28 μm; in experiment [3] (healthy rats), 221 ± 22 μm; in experiment [3] (rats with CNV), 283 ± 17 μm.

The values are drawn from patent US11324740B2, “Use of agonists of type-2 dopaminergic receptors in treatment of conditions caused by elevated vascular endothelial growth factor levels” (priority 2016, dated 2022).
